Measured values from patent US7045545B1, “Aminoalkylbenzofurans as serotonin (5-HT(2c)) agonists” (Eli Lilly and Company, priority 1999, dated 2006).

Row | Structure (SMILES) | melting point
1 | CC(N)Cc1c(F)ccc2ccoc12.O=C(O)C(=O)O (centres unmarked) | 200 to 202 °C
2 | C[C@H](N)Cc1cc(F)cc2cc(Br)oc12.Cl | 202 to 205 °C
3 | CC(N)Cc1ccc(F)c2ccoc12.O=C(O)C(=O)O (centres unmarked) | 172 to 174 °C

The next lines start with the values.

Row | melting point | Structure (SMILES)
4 | 201 to 202 °C | Cc1coc2c(CC(C)N)cc(F)cc12.O=C(O)C(=O)O (centres unmarked)
5 | 216 to 217 °C (dec.) | CC(N)Cc1cc([N+](=O)[O-])cc2ccoc12.Cl (centres unmarked)
